Data on one molecule can be found in PMC7581941, “Schedule-Dependent Synergy Between the Histone Deacetylase Inhibitor Belinostat and the Dihydrofolate Reductase Inhibitor Pralatrexate in T-and B-cell Lymphoma Cells in vitro” (Frontiers in Cell and Developmental Biology, 2020).

Several values for one entry are separate records, joined by “and”; a condition that tells them apart may be missing. Identical values can stand only once. Like-named read-outs stand apart in the source and are kept apart here.

The subject of one data set is lymphoma cell lines. The data set is described as follows: Cell growth inhibition and median-drug effect analysis, panel of lymphoma cell lines. It is filed as cell-based. Conditions: 72 hr exposure, panel of cell lines; read-out: IC50, range over the cell lines. The method, then: (§1) Cells were plated in 96-wells flat bottom plates, at 3,000 or 6,000 cells per well in culture medium (75 μL/well) or in 24-wells plates (60,000 cells/well) for the counting assays for which a Coulter Counter was used. Cells were treated immediately with a drug dilution series in cell culture medium (75 μL/well). […] After incubation for 3 h in the 5% CO2 incubator with 100% humidity at 37°C, 150 μL acidified 2-propanol was added to the plates to dissolve the formazan crystals. The yellow-colored MTT stock solution is taken up and reduced to a purple formazan in living cells, which directly correlates to the amount of viable cells. As final step, the plates were measured at 540 (or 492) nm by the SPECTRAfluor spectrophotometer. […] Drug interaction in combination experiments was evaluated using the median-drug effect analysis using CalcuSyn software ([Bijnsdorp et al., 2011]). […] The means of the separate experiments were subsequently averaged so that a mean ± Standard Error of the Mean (SEM) was calculated from three or more separate experiments. […] Drug combinations were designed based on the standard CalcuSyn approach in which a series of drug concentrations were combined in a fixed molar ratio, based on the IC50 of each drug. A variation of this approach was a sequential scheduling in which cells were exposed for 72 h to BLS, while in the combination PLX was added after 24 h and cells were exposed from 24 to 72 h.

A further data set has as its target T1, FRβ (Homo sapiens, UniProt P14207).
T1 construct: expressed in transfected cells; host or cells: CHO-FRβ cells
The experiment in a line: Intact cell binding assay, displacement of radio-active folic acid from CHO-FRβ cells. Conditions: folic acid set at 1. The method, then: (§2) In order to determine to which extent PLX was a substrate for either the folate receptors, RFC or PCFT we used competition experiments in cell lines overexpressing either transporter ([Westerhof et al., 1995a], [b]; [Jansen et al., 1997]; [Ifergan et al., 2008]; [Lasry et al., 2008]; [van der Heijden et al., 2009]). For FRα and FRβ, we used an intact cell binding assay for competitive binding with KB cells and CHO-FRβ cells, respectively. […] For RFC we used a competition assay with 5 μM [^3H]-l-LV in CCRF-CEM/7A cells (RFC+++) for 2 min at 37°C. CEM-7A cells overexpress the RFC 30-fold over wild-type CCRF-CEM cells ([Jansen et al., 1990], [1997]).

Data set [1] has as its system SUDHL-4 cells. The experiment in a line: FACS propidium iodide staining: cell death, SUDHL-4. The format is cell-based. Conditions: drugs at their IC50, untreated 5.0%. The method, then:
(§3) Propidium iodide staining (DNA staining) was used to determine cell cycle distribution and the extent of cell death. Cells (120,000 per well in a 24-wells plate) were exposed to PLX or BLS or the combination for 24, 48, or 72 h. Cells were harvested, suspended in 1.0 ml phosphate buffered saline/1% Bovine serum albumin and fixed with 70% ethanol. After centrifugation the pellet was resuspended in hypotonic propidium iodide (0.1 mg/ml), Triton-X-100 (0.1%), sodium citrate (1 mg/ml) and RNAse A (0.5 mg/ml) (final concentrations in saline) and stored in dark on ice for 30 min ([De Wilt et al., 2012]). DNA content of the cells to determine cell cycle effects and cell kill was analyzed by a FACScalibur (Becton Dickinson Immunocytometry Systems, San Jose, CA, United States) with an acquisition of 10,000 events as described previously ([De Wilt et al., 2012]).

A further data set deals with Karpas-299. The data set is described as follows: Cell growth inhibition (MTT) and median-drug effect analysis, Karpas-299. It is filed as cell-based. Conditions: Homo sapiens, read-out: IC50 (50% growth inhibition); Karpas-299, 72 h exposure. The method, then:
(§4) Cells were treated immediately with a drug dilution series in cell culture medium (75 μL/well). After an incubation period of approximately 72 h, growth in the 96-wells plates was assessed by adding 15 μL MTT solution (stock solution 5 mg/ml in PBS, final concentration 0.5 mg/ml in culture medium) to each well. After incubation for 3 h in the 5% CO2 incubator with 100% humidity at 37°C, 150 μL acidified 2-propanol was added to the plates to dissolve the formazan crystals. The yellow-colored MTT stock solution is taken up and reduced to a purple formazan in living cells, which directly correlates to the amount of viable cells. As final step, the plates were measured at 540 (or 492) nm by the SPECTRAfluor spectrophotometer.
(§5) Drug interaction in combination experiments was evaluated using the median-drug effect analysis using CalcuSyn software ([Bijnsdorp et al., 2011]). In order to evaluate combination indexes [CI] from different experiments, the CI values at Fraction Affected (FA) values >0.5 (preferably around 0.5, 0.75, and 0.9) were averaged for each specific experiment. The means of the separate experiments were subsequently averaged so that a mean ± Standard Error of the Mean (SEM) was calculated from three or more separate experiments. […]

Another data set relates to cell proliferation. Further details: method as in Tonner et al., 2006. Conditions: ref Tonner et al., 2006; cited from earlier work.
Another data set concerns the target T2, PCFT (Homo sapiens, UniProt Q96NT5).
T2 construct: expressed in transfected cells; host or cells: CHO cells lacking RFC
T2 sequence (Q96NT5 1-459): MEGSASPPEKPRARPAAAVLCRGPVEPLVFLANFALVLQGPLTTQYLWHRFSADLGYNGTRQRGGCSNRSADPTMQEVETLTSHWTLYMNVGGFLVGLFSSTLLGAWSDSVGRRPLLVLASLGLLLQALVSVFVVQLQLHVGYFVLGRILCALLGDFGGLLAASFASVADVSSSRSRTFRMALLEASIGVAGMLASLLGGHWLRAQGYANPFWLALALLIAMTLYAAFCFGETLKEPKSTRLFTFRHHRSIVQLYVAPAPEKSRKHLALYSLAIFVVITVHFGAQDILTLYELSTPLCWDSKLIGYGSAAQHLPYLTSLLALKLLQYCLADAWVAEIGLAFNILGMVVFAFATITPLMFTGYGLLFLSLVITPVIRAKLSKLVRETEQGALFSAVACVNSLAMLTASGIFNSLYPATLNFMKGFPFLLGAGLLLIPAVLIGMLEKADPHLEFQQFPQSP
The experiment in a line: PCFT competition assay: inhibition of [3H]-l-LV influx in CHO-cells lacking RFC and transfected with PCFT. The format is cell-based. The method, then: The affinity for PCFT of PLX was assessed in competition with 2.5 μM ^3H-l-LV at pH 5.5 in CHO-cells lacking RFC and transfected with PCFT. […] […] Also for PCFT relative affinities were expressed as the concentration of unlabeled drug necessary to inhibit [^3H]-LV influx.

The test system of data set [2] is SUDHL-4 cells. The data set is described as follows: Cell growth inhibition (cell counting) and median-drug effect analysis, SUDHL-4. It is filed as cell-based. Conditions: Homo sapiens, SU-DHL-4, read-out: IC50 (50% growth inhibition); SUDHL 4, 72 h exposure.
The next data set has as its system SUDHL-5 cells. The experiment in a line: Cell growth inhibition (MTT) and median-drug effect analysis, SUDHL-5. It is filed as cell-based. The method, then: as §4
Drug interaction in combination experiments was evaluated using the median-drug effect analysis using CalcuSyn software ([Bijnsdorp et al., 2011]). In order to evaluate combination indexes [CI] from different experiments, the CI values at Fraction Affected (FA) values >0.5 (preferably around 0.5, 0.75, and 0.9) were averaged for each specific experiment. The means of the separate experiments were subsequently averaged so that a mean ± Standard Error of the Mean (SEM) was calculated from three or more separate experiments. […] Drug combinations were designed based on the standard CalcuSyn approach in which a series of drug concentrations were combined in a fixed molar ratio, based on the IC50 of each drug. A variation of this approach was a sequential scheduling in which cells were exposed for 72 h to BLS, while in the combination PLX was added after 24 h and cells were exposed from 24 to 72 h. In the non-fixed ratio approach one drug was used at the IC25 (concentration that results in 25% growth inhibition) and the other drug was added in a concentration range.

The next data set has as its system Hut-29. The experiment in a line: Cell growth inhibition (MTT) and median-drug effect analysis, Hut-29. It is filed as cell-based. Conditions: read-out: IC50 (50% growth inhibition); Hut-29, 72 h exposure. The method, then:
as §4, §5

In a further data set the test system is CCRF-CEM. The data set is described as follows: Cell growth inhibition (MTT), CCRF-CEM. It is filed as cell-based, human. The method, then: as §4
Another data set has as its system Jeko-1. The experiment in a line: Cell growth inhibition (MTT) and median-drug effect analysis, Jeko-1. It is filed as cell-based. Conditions: Homo sapiens, read-out: IC50 (50% growth inhibition); Jeko-1, 72 h exposure. The method, then: as §1, with “A variation of this approach was a sequential scheduling in which cells were exposed for 72 h to BLS, while in the combination PLX was added after 24 h and cells were exposed from 24 to 72 h.” left out

Data set [3] deals with HT cells. The data set is described as follows: FACS propidium iodide staining: cell cycle distribution and cell death, HT. The format is cell-based. Conditions: drugs at their IC50, untreated 3.5%. The method, then:
as §3

The target of the next data set is T3, RFC (Homo sapiens, UniProt P41440).
T3 construct: CEM-7A cells overexpress the RFC 30-fold over wild-type CCRF-CEM cells; endogenous in cells; host or cells: CCRF-CEM/7A (CEM-7A) cells
T3 sequence (P41440 1-591): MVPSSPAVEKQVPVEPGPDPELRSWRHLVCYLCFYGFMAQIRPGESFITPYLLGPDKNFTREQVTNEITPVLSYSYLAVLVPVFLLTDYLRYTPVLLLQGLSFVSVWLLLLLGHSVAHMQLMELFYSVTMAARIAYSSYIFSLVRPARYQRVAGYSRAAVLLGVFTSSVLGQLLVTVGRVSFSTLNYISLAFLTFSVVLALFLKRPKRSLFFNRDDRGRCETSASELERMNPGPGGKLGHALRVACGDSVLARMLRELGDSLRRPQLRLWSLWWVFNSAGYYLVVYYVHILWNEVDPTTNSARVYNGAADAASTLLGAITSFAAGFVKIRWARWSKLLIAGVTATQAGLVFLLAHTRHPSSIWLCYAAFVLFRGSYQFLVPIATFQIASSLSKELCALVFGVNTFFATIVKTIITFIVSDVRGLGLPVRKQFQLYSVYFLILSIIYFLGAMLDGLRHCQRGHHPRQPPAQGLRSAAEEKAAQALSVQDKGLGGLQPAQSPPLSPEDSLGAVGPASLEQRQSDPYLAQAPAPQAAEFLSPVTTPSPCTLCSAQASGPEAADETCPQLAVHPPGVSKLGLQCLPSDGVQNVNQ
The data set is described as follows: RFC competition assay: inhibition of [3H]-l-LV uptake in CCRF-CEM/7A cells (RFC+++). The format is cell-based. The method, then:
For FRα and FRβ, we used an intact cell binding assay for competitive binding with KB cells and CHO-FRβ cells, respectively. […] For RFC we used a competition assay with 5 μM [^3H]-l-LV in CCRF-CEM/7A cells (RFC+++) for 2 min at 37°C.
Transport was determined by evaluation of the uptake of 5 μM [^3H]-l-LV for 2 min in CCRF-CEM-7A cells, which overexpress RFC. […] Values are from one representative experiment in triplicate; performed three times. Error bars represent SEM, when not visible, they are within the size of the marker.

The subject of data set [4] is HT cells. The data set is described as follows: Cell growth inhibition (cell counting) and median-drug effect analysis, HT. The format is cell-based. Conditions: for IC50: HT.
The target in the next data set is T4, FRα (Homo sapiens, UniProt P15328).
T4 construct: endogenous in cells; host or cells: KB cells
T4 sequence (P15328 25-257): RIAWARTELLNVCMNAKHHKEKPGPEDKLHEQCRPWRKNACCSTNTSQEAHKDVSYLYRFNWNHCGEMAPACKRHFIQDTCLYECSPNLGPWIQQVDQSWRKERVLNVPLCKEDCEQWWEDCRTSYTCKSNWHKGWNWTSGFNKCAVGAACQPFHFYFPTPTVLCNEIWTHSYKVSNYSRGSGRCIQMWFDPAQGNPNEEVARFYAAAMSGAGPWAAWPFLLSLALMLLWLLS
The experiment in a line: Intact cell binding assay, displacement of radio-active folic acid from KB cells. Conditions: inverse ratio of compound to displace 50% of radio-active folic acid, folic acid set at 1. The method, then: as §2

T1 sequence (P14207 17-255, species assumed): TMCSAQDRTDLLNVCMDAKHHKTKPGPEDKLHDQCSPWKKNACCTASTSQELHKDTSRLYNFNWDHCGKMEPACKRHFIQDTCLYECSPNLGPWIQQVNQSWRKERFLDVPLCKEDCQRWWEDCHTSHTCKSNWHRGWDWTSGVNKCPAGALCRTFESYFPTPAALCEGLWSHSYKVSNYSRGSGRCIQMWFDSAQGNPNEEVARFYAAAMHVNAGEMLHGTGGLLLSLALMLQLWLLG

As to `C#CCC(Cc1cnc2nc(N)nc(N)c2n1)c1ccc(C(=O)N[C@@H](CCC(=O)O)C(=O)O)cc1` (stereo partly shown) [PLX, Pralatrexate], the IC50 was 2.8 to 20 nM in the data set on lymphoma cell lines; 24.7 ± 5.3 nM in the data set with Karpas-299; 15000 nM and 14800 nM on PCFT (2.5 μM [3H]-l-LV, pH 5.5, 3 min, 37°C, read-out: PCFT: concentration of unlabeled drug necessary to inhibit [3H]-LV influx); 5.6 ± 0.4 nM in the data set on SUDHL-4 cells [2]; 5.5 ± 0.9 nM in the data set with SUDHL-5 cells (Homo sapiens, SU-DHL-5, read-out: IC50 (50% growth inhibition), SUDHL 5, 72 h exposure); 2.8 ± 0.5 nM with Hut-29. Further, the IC50 is 2.6 ± 0.4 nM in the data set on CCRF-CEM (Homo sapiens, read-out: IC50 (50% growth inhibition), CCRF-CEM, 72 h exposure); 18.7 ± 4.2 nM in the data set with Jeko-1; 2800 ± 100 nM at RFC (5 μM [3H]-l-LV, 2 min, 37°C, CCRF-CEM/7A cells, read-out: RFC: concentration of unlabeled drug necessary to inhibit [3H]-l-LV uptake by 50%); approximately 10 nM in the data set with HT cells [4] (Homo sapiens, 72 h, read-out: IC50 (50% growth inhibition), HT, 72 h exposure); 7.4 ± 0.5 nM in the data set with HT cells [4] (read-out: IC50 (50% growth inhibition), 72 h exposure). On FRβ, this molecule returned an FRβ relative affinity of less than 0.001. Besides, the “accumulation of cells in the sub-G1 phase (cell death)” value turned out to be 22.1% in the data set on SUDHL-4 cells [1] and 13% in the data set with HT cells [3]. For the same molecule, in the data set on cell proliferation, the “potency in suppressing cell proliferation relative to methotrexate” value is listed as “one log more potent”. Moreover, at PCFT (pH 7.4), the “substrate for PCFT at physiological pH” value is on record as “very poor substrate”. For the same molecule, the “IC25 (concentration that results in 25% growth inhibition)” value in the data set on SUDHL-5 cells (SUDHL-5 cells, 72 h) was approximately 4 nM; in the data set with HT cells [4] (HT cells, 72 h), approximately 5 nM. Moreover, the “reversal of cytotoxicity by l-LV” value with CCRF-CEM (5 μM l-LV, CEM cells) is recorded as 2965 fold. Further, the “RFC substrate affinity, fold better compared to methotrexate” value on RFC turned out to be 6 fold. In addition, the “RFC substrate affinity, fold better than levoleucovorin (l-LV)” value at RFC is 2 fold. Also, at FRα, the FR-α relative affinity was 0.0035 and 0.0035 ± 0.0005.
